Where two headings read alike, the source gives them in different places.
Legend:
T cell clone MS60:D2 = assay: Presentation of nested MBP peptides by fixed APC (Mgar cells) to T cell clone MS60:D2, proliferation assay; format: cell-based, human; conditions: p-formaldehyde fixed Mgar (HLA-DR2+ve) cells, T cell clone MS60:D2, 3H-thymidine uptake, FIG. 1
T cell clone N5 = assay: Presentation of MBP peptide 140-154 by fixed APC to T cell clone N5, proliferation assay; format: cell-based, human; conditions: T cell clone N5, FIG. 2
Experimental: MBP-specific T cell lines (TCL) are generated from 8 MS patients and 2 healthy control donors. PBMC from each subject are separated as described above and plated out at 1×10^6 cells/ml in 6-well plates in the presence of MBP (50 μg/ml); a portion of PBMC from each subject is regularly frozen and stored for subsequent restimulations. Seven days later the cells are fed with fresh medium containing 2% IL-2 (Lymphocult-HT; Biotest LTD., Birmingham, UK), and on day 12 of culture all cells are restimulated with antigen, IL-2 and irradiated (2500 Rad) autologous PBMC as a source of antigen presenting cells (APC), at a cell ratio of 1T cell:5 APC. Cells are expanded in IL-2 every 3-4 days, and on day 14 are restimulated with antigen, IL-2 and PBMC, as described above. On the day of the first restimulation cells are examined for specific proliferation to MBP. Briefly, 2×10^4 T cells and 1×10^5 irradiated autologous PBMC are cultured in triplicate, in 96-well round-bottom plates, in the presence of MBP. […]
Live or p-formaldehyde fixed Mgar (HLA-DR2+ve) cells were incubated with peptides in serum or in serum alone, together with T cells. The T cell proliferative response was measured by ^3H-thymidine uptake as follows. […] [^3H]-Thymidine incorporation is determined using a Microbeta liquid scintillation counter (LKB-Wallac). […]

[1] = tested on: lymph node cells of HLA:DR2 transgenic mice; assay: Induction of tolerance in HLA:DR2 transgenic mouse, lymph node proliferation assay; format: in vivo
I-A^S = biological target: T1, I-A^S (Mus musculus, UniProt P06345+P14437); conditions: cited from earlier work
T1 sequence (P14437 1-233): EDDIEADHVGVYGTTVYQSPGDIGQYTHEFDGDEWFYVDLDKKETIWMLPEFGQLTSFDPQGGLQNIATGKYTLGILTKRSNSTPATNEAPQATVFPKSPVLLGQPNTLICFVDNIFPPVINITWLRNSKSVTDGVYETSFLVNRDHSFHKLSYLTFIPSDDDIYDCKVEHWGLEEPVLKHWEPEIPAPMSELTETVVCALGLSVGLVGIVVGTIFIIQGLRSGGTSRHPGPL
T1 sequence (P06345 28-263): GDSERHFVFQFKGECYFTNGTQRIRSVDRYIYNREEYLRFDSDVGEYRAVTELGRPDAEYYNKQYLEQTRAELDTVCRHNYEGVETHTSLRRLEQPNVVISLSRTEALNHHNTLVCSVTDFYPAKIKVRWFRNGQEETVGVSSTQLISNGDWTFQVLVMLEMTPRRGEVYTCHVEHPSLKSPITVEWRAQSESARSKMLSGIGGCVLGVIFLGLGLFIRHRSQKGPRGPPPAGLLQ

[2] = cited from earlier work; for induction of tolerance: administered in solution

## KGFKGVDAQGTLSKI (listed as Homo sapiens) [MBP 139-153, myelin basic protein peptide 139-153]
T cell clone MS60:D2
  presentation by fixed APC to T cells without further processing (apitope): apitopes

## SAHKGFKGVDAQGTL (listed as Homo sapiens) [MBP 136-150, myelin basic protein peptide 136-150]
T cell clone MS60:D2
  presentation by fixed APC to T cells without further processing (apitope): apitopes

## HKGFKGVDAQGTLSK (listed as Homo sapiens) [MBP 138-152, myelin basic protein peptide 138-152]
T cell clone MS60:D2
  presentation by fixed APC to T cells without further processing (apitope): apitopes

## KSAHKGFKGVDAQGT (listed as Homo sapiens) [MBP 135-149, myelin basic protein peptide 135-149]
T cell clone MS60:D2
  presentation by fixed APC to T cells without further processing (apitope): apitopes

## GFKGVDAQGTLSKIF (listed as Homo sapiens) [MBP 140-154, myelin basic protein peptide 140-154]
T cell clone N5
  presentation by fixed APC without further processing: can be presented by fixed APC without further processing
[1]; Group B, over peptide concentration range 1-150 ugml^-1
  SI values of the one pre-treated mouse that failed to show induction of tolerance: 12-15
[1]; Group B: 100 ug peptide i.n. days -8, -6, -4, immunised with same peptide in CFA, restimulated with 150 ugml^-1 peptide
  Stimulation Index (SI) median of lymphocyte proliferation: 3
[1]; intranasal pre-treatment, lymphocytes from HLA-DR2 mice
  induction of tolerance: induced tolerance
T cell clone MS60:D2
  presentation by fixed APC to T cells without further processing (apitope): apitopes

## MBP[89-101]: myelin basic protein (MBP) peptide 89-101, an immunodominant antigen after immunisation (PHLIRLFSRDAPG; UniProt P04370 89-101, looked up, fragment)
I-A^S
  affinity of binding to I-A^S: relatively high affinity
[2]
  induction of tolerance: not tolerogenic
[2]; listed as 89-101
  induction of tolerance: ineffective at inducing tolerance
[2]; after immunisation
  immunogenicity (priming for T cell reactivity and induction of EAE): very effective immunogen

## YKSAHKGFKGVDAQG (listed as Homo sapiens) [MBP 134-148, myelin basic protein peptide 134-148]
T cell clone MS60:D2
  presentation by fixed APC to T cells without further processing (apitope): apitopes

## AHKGFKGVDAQGTLS (listed as Homo sapiens) [MBP 137-151, myelin basic protein peptide 137-151]
T cell clone MS60:D2
  presentation by fixed APC to T cells without further processing (apitope): apitopes

— patent publication US7071297B2, “Tolerogenic peptides from myelin basic protein” (Apitope Technology (Bristol) Limited, priority 2002, dated 2006)
